{"source": "patent US20140259191A1", "about": "“FISH ANESTHETIC AND METHOD” (AQUA-MOR TECHNOLOGIES LTD., priority 2011, published 2014)", "key": {"common carp": {"test_system": "common carp", "assay": "Five-hour sedation of common carp, linalool versus 2-phenoxyethanol", "type": "in vivo", "conditions": "linalool 40 ppm; for Number of fish exhibiting loss of upright position: 26° C.", "experimental": "2-Phenoxyethanol (2-PE) is used to sedate fish in vaccinations procedures for relatively long periods of time (3 hours). 35 common carp were placed in each of two 60-liter tanks containing water at 26° C. Into one tank was added linalool (in a formulation as described in Example 28) to a concentration of 40 ppm; into the other tank was added 2-PE to a concentration of 200 ppm. Sedation of fish was determined by observation of loss of upright position, operculum movement and response to stimulus (handling). Total exposure time was five hours, at the end of which the fish were transferred 60-liter recovery tanks containing untreated water."}, "goldfish": {"test_system": "goldfish", "assay": "Anesthesia of goldfish by linalool or Ho Wood oil added to tank water", "type": "in vivo, Carassius auratus auratus", "experimental": "(§1) A one year old koi fish of body length 11 cm and which appeared to be healthy was placed in a 4 liter tank containing water at 25° C. and in which the water was circulated by means of aeration. A liquid a mixture containing 1 wt. % synthetic linalool (1 wt. % linalool, 5 wt. % 14R, 2 wt. % AF80 and 92 wt. % water) was added to the tank and manually mixed with the water so that the concentration of linalool in the water was 50 ppm. This was regarding as the starting time of the experiment; thereafter, observations were made regularly to determine the behavior of the fish in water. This continued until no response to external stimulation and complete loss of equilibrium were observed, at which point the fish was transferred to a recovery tank containing fresh water. The fish was placed near the air pump, and the time until the fish again swam and responded normally to external stimulation was recorded.\n(§2) The experiment of Example 1 was repeated, using a one year old goldfish of 8.5 cm body length. […] At 9.5 minutes the fish was removed to a recovery tank with clean water. Thereafter it recovered slowly and after 35 minutes was swimming around in the tank and appeared to have resumed normal activity.\nas §2, with “length, and adding the linalool formulation to a linalool concentration in the water of 75 ppm instead of 50 ppm. After 2 minutes of exposure to linalool the fish appeared to be in stress.” for “length.”, “20” for “9.5”, “activity. […]” for “activity.”\nThis example illustrates the effects of Linalool on Goldfish (cold water fish). The experiment was performed in a four liter tank with three 10-month old goldfish of respective weights 32 g, 30 g and 34 g and respective body lengths of 12.5 cm, 11.5 cm and 11 cm. The water temperature was 16° C. and the pH was 7. A formulation containing 1% Linalool was added to the water to a concentration of 50 ppm linalool in the water. The fish became relaxed 5 minutes after introduction of the linalool, and after 6 5 minutes there fish were completely anesthetized. After 20 minutes of exposure to linalool, the fish were removed to a recovery tank with fresh water. 15 minutes thereafter the fish had resumed normal behavior. […]\nThe experiment of Example 1 was repeated, using two one-year old goldfish of respective body lengths 8.5 and 7.5 cm and respective weights of 17 and 15 g, and adding the a natural source of linalool (Ho Wood oil) to a concentration of 75 ppm linalool instead of 50 ppm. […] At 4 minutes the fish were removed to a recovery tank with clean water. After 5 minutes in the recovery tank they swam around and appeared to have resumed normal activity.\nThe experiment of Example 21 was repeated, using two one-year old goldfish of respective body lengths 9 and 8 cm and respective weights 19 and 17.5 g, but adding Ho Wood oil to a linalool concentration of 50 ppm in the water. […] At 16.5 minutes the fish were removed to a recovery tank with clean water. After 4 minutes in the recovery tank they swam around and appeared to have resumed normal activity."}, "Koi fish": {"test_system": "Koi fish", "assay": "Anesthesia of Koi fish by linalool added to tank water", "type": "in vivo", "experimental": "as §1\n(§3) The experiment of Example 1 was repeated, using a one year old Koi fish of 12 cm body length, and adding the linalool formulation to a linalool concentration in the water of 75 ppm instead of 50 ppm. After 2 minutes of exposure to linalool the fish appeared to be in slight stress. […] At 20 minutes the fish was removed to a recovery tank with clean water. Thereafter it recovered slowly and after 40 minutes was swimming around in the tank and appeared to have resumed normal activity.\nas §3, with “12.5” for “12”, “100” for “75”, “ppm.” for “ppm. After 2 minutes of exposure to linalool the fish appeared to be in slight stress.”, “6” for “20”, “30” for “40”\nTo a four liter tank containing three one-year old Koi fish of respective weights 30 g, 29 g and 31 g and respective body lengths 11 cm, 12 cm and 12.5 cm in water at 21° C. and pH 7 was added a formulation containing 1% linalool. The formulation was added to the water to a linalool concentration of 50 ppm in the water. The fish became relaxed 6 minutes after addition of linalool and after 9 minutes were completely anesthetized. At 9 5 minutes the fish were removed to a recovery tank with fresh water. After 40 minutes in the recovery tank the fish resumed normal behavior."}, "[1]": {"conditions": "Example 4: goldfish 8.5 cm, 50 ppm linalool in water"}, "[2]": {"conditions": "Example 5: goldfish 8.5 cm, 75 ppm linalool in water"}, "[3]": {"conditions": "Example 6: goldfish 8 cm, 100 ppm linalool in water"}, "[4]": {"conditions": "Example 11: three goldfish 25-27.5 g, 100 ppm linalool"}, "[5]": {"conditions": "Example 1: Koi 11 cm, 50 ppm linalool in water, 25° C."}, "[6]": {"conditions": "Example 2: Koi 12 cm, 75 ppm linalool in water"}, "[7]": {"conditions": "Example 3: Koi 12.5 cm, 100 ppm linalool in water"}, "[8]": {"conditions": "Example 18: three Koi 29-31 g, 50 ppm linalool, 21° C., pH 7"}}}
{"smiles": "C=CC(C)(O)CCC=C(C)C", "note": "(centres unmarked) [linalool]", "values": [{"measurement": "Number of fish exhibiting loss of upright position", "setting": "common carp; 35 common carp per tank, 2-PE 200 ppm, time 10:30 (start), aeration", "value": 0}, {"measurement": "Number of fish exhibiting loss of upright position", "setting": "common carp; 35 common carp per tank, 2-PE 200 ppm, time 11:00 (start 10:30), no aeration", "value": 2}, {"measurement": "Number of fish exhibiting loss of upright position", "setting": "common carp; 35 common carp per tank, 2-PE 200 ppm, time 11:40 (start 10:30), no aeration", "value": 9}, {"measurement": "Number of fish exhibiting loss of upright position", "setting": "common carp; 35 common carp per tank, 2-PE 200 ppm, time 12:35 (start 10:30), no aeration", "value": 16}, {"measurement": "Number of fish exhibiting loss of upright position", "setting": "common carp; 35 common carp per tank, 2-PE 200 ppm, time 13:35 (start 10:30), no aeration", "value": 17}, {"measurement": "Number of fish exhibiting loss of upright position", "setting": "common carp; 35 common carp per tank, 2-PE 200 ppm, time 14:30 (start 10:30), aeration", "value": 20}, {"measurement": "Number of fish exhibiting loss of upright position", "setting": "common carp; 35 common carp per tank, 2-PE 200 ppm, time 15:30 (start 10:30), aeration", "value": 16}, {"measurement": "survival at transfer to recovery tank", "setting": "common carp; 35 common carp per tank, 2-PE 200 ppm, after five hours exposure", "value": "All alive"}, {"measurement": "reflex response over the 5 hours of exposure", "setting": "common carp; common carp, 2-PE 200 ppm", "value": "reduced from the beginning of the trial and remained at the same level of reflex throughout the 5 hours of exposure"}, {"measurement": "sedative effect between 3 and 5 hours of exposure", "setting": "common carp; common carp, 2-PE 200 ppm", "value": "maintained"}, {"measurement": "recovery after placement in a recovery tank", "setting": "common carp; common carp, 2-PE 200 ppm, after five hours exposure", "value": "recovered quickly in few minutes and did not show signs of stress"}, {"measurement": "response to external stimulation during the first 3 hours", "setting": "common carp; common carp, 2-PE 200 ppm, sedation levels enabled handling", "value": "did not respond to external stimulation"}, {"measurement": "loss of reflex reactivity", "setting": "common carp; common carp, in contrast to 2-PE", "value": "did not completely lose reflex reactivity"}, {"measurement": "time of exposure until complete loss of equilibrium", "setting": "goldfish; [1]", "value": 6.5, "unit": "min"}, {"measurement": "time of exposure until no response to external stimulation", "setting": "goldfish; [1]", "value": 9, "unit": "min"}, {"measurement": "time of exposure until partial loss of equilibrium", "setting": "goldfish; [1]", "value": 5, "unit": "min"}, {"measurement": "time in recovery tank until normal activity resumed", "setting": "goldfish; Example 4: goldfish 8.5 cm, 50 ppm linalool, removed to clean water at 9.5 minutes", "value": 35, "unit": "min"}, {"measurement": "time of exposure until complete loss of equilibrium", "setting": "goldfish; [2]", "value": 5, "unit": "min"}, {"measurement": "time of exposure until no response to external stimulation", "setting": "goldfish; [2]", "value": 9, "unit": "min"}, {"measurement": "time of exposure until partial loss of equilibrium", "setting": "goldfish; [2]", "value": 2.5, "unit": "min"}, {"measurement": "time in recovery tank until normal activity resumed", "setting": "goldfish; Example 5: goldfish 8.5 cm, 75 ppm linalool, removed to clean water at 20 minutes", "value": 35, "unit": "min"}, {"measurement": "time of exposure until complete loss of equilibrium", "setting": "goldfish; [3]", "value": 2, "unit": "min"}, {"measurement": "time of exposure until no response to external stimulation", "setting": "goldfish; [3]", "value": 3.5, "unit": "min"}, {"measurement": "time of exposure until partial loss of equilibrium", "setting": "goldfish; [3]", "value": 1.5, "unit": "min"}, {"measurement": "time in recovery tank until normal activity resumed", "setting": "goldfish; Example 6: goldfish 8 cm, 100 ppm linalool, removed to clean water at 4 minutes", "value": 35, "unit": "min"}, {"measurement": "mortality during a further three days of observation", "setting": "goldfish; Example 7: three goldfish, average 12.5 cm, experiment of Example 1 repeated", "value": "no mortality occurred"}, {"measurement": "time in recovery tank until normal behavior resumed", "setting": "goldfish; Example 9: goldfish, 50 ppm linalool, 16° C., removed after 20 minutes of exposure", "value": 15, "unit": "min"}, {"measurement": "time after introduction of linalool until fish became relaxed", "setting": "goldfish; Example 9: three goldfish 30-34 g, 50 ppm linalool, 16° C., pH 7", "value": 5, "unit": "min"}, {"measurement": "time in recovery tank until normal behavior resumed", "setting": "goldfish; Example 10: goldfish, 75 ppm linalool, 16° C., removed at 20 minutes", "value": 35, "unit": "min"}, {"measurement": "time until fish completely anesthetized", "setting": "goldfish; Example 10: three goldfish 25-27 g, 75 ppm linalool, 16° C., pH 7", "value": 5, "unit": "min"}, {"measurement": "time in recovery tank until normal behavior resumed", "setting": "goldfish; Example 11: goldfish, 100 ppm linalool, removed at 4 minutes", "value": 20, "unit": "min"}, {"measurement": "time after addition of linalool until fish became relaxed", "setting": "goldfish; [4]", "value": 1.5, "unit": "min"}, {"measurement": "time until fish completely anesthetized", "setting": "goldfish; [4]", "value": 2, "unit": "min"}, {"measurement": "time of exposure until complete loss of equilibrium", "setting": "Koi fish; [5]", "value": 6.5, "unit": "min"}, {"measurement": "time of exposure until fish swam on its back", "setting": "Koi fish; [5]", "value": 8, "unit": "min"}, {"measurement": "time of exposure until no response to external stimulation", "setting": "Koi fish; [5]", "value": 9, "unit": "min"}, {"measurement": "time of exposure until partial loss of equilibrium", "setting": "Koi fish; [5]", "value": 5.5, "unit": "min"}, {"measurement": "time of exposure until slight stress", "setting": "Koi fish; [5]", "value": 2.5, "unit": "min"}, {"measurement": "time in recovery tank until normal activity resumed", "setting": "Koi fish; Example 1: Koi 11 cm, 50 ppm linalool, removed to clean water at 9.5 minutes", "value": 45, "unit": "min"}, {"measurement": "time of exposure until complete loss of equilibrium", "setting": "Koi fish; [6]", "value": 7, "unit": "min"}, {"measurement": "time of exposure until no response to external stimulation", "setting": "Koi fish; [6]", "value": 9, "unit": "min"}, {"measurement": "time of exposure until slight stress", "setting": "Koi fish; [6]", "value": 2, "unit": "min"}, {"measurement": "time in recovery tank until normal activity resumed", "setting": "Koi fish; Example 2: Koi 12 cm, 75 ppm linalool, removed to clean water at 20 minutes", "value": 40, "unit": "min"}, {"measurement": "time of exposure until complete loss of equilibrium", "setting": "Koi fish; [7]", "value": 4, "unit": "min"}, {"measurement": "time of exposure until no response to external stimulation", "setting": "Koi fish; [7]", "value": 5.5, "unit": "min"}, {"measurement": "time of exposure until partial loss of equilibrium", "setting": "Koi fish; [7]", "value": 2.5, "unit": "min"}, {"measurement": "time in recovery tank until normal activity resumed", "setting": "Koi fish; Example 3: Koi 12.5 cm, 100 ppm linalool, removed to clean water at 6 minutes", "value": 30, "unit": "min"}, {"measurement": "time in recovery tank until normal behavior resumed", "setting": "Koi fish; Example 18: Koi, 50 ppm linalool, 21° C., removed at 9 5 minutes", "value": 40, "unit": "min"}, {"measurement": "time after addition of linalool until fish became relaxed", "setting": "Koi fish; [8]", "value": 6, "unit": "min"}, {"measurement": "time until fish completely anesthetized", "setting": "Koi fish; [8]", "value": 9, "unit": "min"}]}
